The text below walks through data of patent US20080319184A1, “Uses of Dinucleotide Polyphosphate Derivatives” (priority 2005, published 2008).

“Also recorded” adds a separate entry of the source. Read-outs that look alike come from different tables or passages of the source.

In assay [1] the test system is excitatory postsynaptic currents in CA1 pyramidal neuron. The settings on record: cited from earlier work.
The test system of assay [2] is orthodromically evoked field potentials in CA1 zone of rat hippocampal slices. The settings on record: cited from earlier work.
Assay [3] shares this test system. Nature of the assay: Orthodromically induced population spikes (field potentials) in CA1 zone of rat hippocampal slices. In kind it is cell-based. As to conditions: for inhibition of orthodromically evoked field potentials by known P2X/P2Y agonists: in the same way as AppCH2ppA, FIG. 8, FIG. 9. On the procedure:
This study was carried out on 21-day old Wistar rats (WAG/GSto, Moscow, Russia). After rapid decapitation, rat brains were immediately transferred to a Petri dish with chilled (4° C.) solution of the composition 120 mM NaCl, 5 mM KCl, 26 mM NaHCO3, 2 mM MgCl2 and 20 mM glucose. Calcium salts were omitted to reduce possible neuronal damage. The solution was constantly bubbled with 95%O2/5%CO2 gas mixture to maintain pH7.4. Hippocampal slices ([…] thick) were cut manually with a razor blade along the alveolar fibres to preserve the lamellar structure of excitatory connections. During preincubation and experiments, the slices were kept fully submerged in the extracellular solution, pH7.4, comprised of 135 mM NaCl, 5 mM KCl, 26 mM NaHCO3, 1.5 mM CaCl2, 1.5 mM MgCl2, and 20 mM glucose, subjected to continuous bubbling with 95% O2/5% CO2) at 30-31° C. […] (RBI, Natick, Mass., USA) was also included into the extracellular solution during experiments to suppress the inhibitory activity of interneurons. Electrophysiological measurements were recording after at least 2 h of preincubation.
Excitatory postsynaptic currents (EPSCs) were recorded by a standard whole-cell patch clamp technique in the CA1 subfield of the hippocampus in response to stimulation of the Schaffer collateral/commissural pathway. To prevent the spread of electrical activity from area CA3, mini-slices were prepared by making a cut orthogonal to the stratum pyramidale extending to the mossy fibre layer. The intracellular solution, pH 7.2, for patch pipettes was comprised of 100 mM CsF (Merck, Darmstadt, FRG), 40 mM NaH2PO4, 10 mM HEPES-CsOH, 10 mM Tris-HCl. […] Access resistance was monitored throughout the experiments and ranged typically from 6 to 9MΩ. […] Extracellular field potentials were recorded using Ni/Cr electrodes. […] The effects of receptor agonists of antagonists were measured as the mean ratio I/Io where I was the current under the substances action and Io was the current in control saline. […]

The test system of assay [4] is NMDA-receptor-mediated channels. Nature of the assay: NMDA-activated current in isolated hippocampal pyramidal neurons (whole-cell patch clamp). It counts as cell-based, rat. On the procedure: NMDA-receptor-activated currents were evoked by 1-2 sec long co-application of aspartate (ASP) (1 mM) and glycine (10 μM). Vh=−100 mV in Mg^2+ free solution.
Wistar rats (12-17-days old) were decapitated under ether anaesthesia and the hippocampus (or cerebellum) was removed. It was cut into slices (300-500 μm) in a solution containing (in mM): 150 NaCl; 5 KCl; 1.25 NaH2PO4; 26 NaHCO3; 1.1 MgCl2; 10 glucose; pH 7.4. Then the slices were incubated for 10 min at 32° C. with 0.5 mg/ml of protease (type XXIII) from Aspergillus oryzae. Single pyramidal cells from CA1 and CA3 stratum pyramidale layers were isolated by vibrodissociation locally in the stratum pyramidale CA3 and CA1 hippocampal pyramidal neurons were identified by their characteristic form and partially preserved dendritic arborisation.
After isolation the cells were usually suitable for recordings for 2-4 h. Throughout the entire procedure the solutions with the slices were continuously saturated with 95% O2 and 5% CO2 gas mixture to maintain pH 7.4. The tested substances were dissolved in DMSO to a stock concentration of 10 mM and kept frozen at −40° C. in daily aliquots. The substances were dissolved in external saline to their final concentration immediately before the experiments.
NMDA-activated currents in isolated neurons were induced by the step application of aspartate (1 mM) and […] in the “concentration clamp” mode (Krishtal et al., 1983), using the computerized “Pharma-Robot” set-up (Pharma-Robot, Kiev). This equipment allows a complete change of saline within 15 ms. Transmembrane currents were recorded using a conventional patch-clamp technique, in the whole-cell configuration. […] The intracellular solution contained (in mM): 70 Tris-PO4; 5 EGTA; 40 TEA-Cl (tetraethylammonium chloride); 30 Tris-Cl; 5 Mg-ATP; 0.5 GTP; pH 7.2. The composition of extracellular solution was (in mM):. 130 NaCl; 3 CaCl2; 5 KCl; 2 MgCl2; 10 HEPES-NaOH; 0.1 μM TTX; pH 7.4. Recording of the currents was performed using patch-clamp amplifiers (DAGAN, USA). Transmembrane currents were filtered at 3 kHz, stored and analysed with an IBM-PC computer using homemade software. NMDA responses were recorded with a 3 min interval. All experiments were performed at room temperature (19-24° C.).
Background: The patch-clamp technique gives a direct electrical read-out from membranes.

Assay [5] relates to excitatory postsynaptic currents in CA1 pyramidal neuron. Put plainly: Excitatory postsynaptic currents (EPSCs), whole-cell patch clamp in CA1 pyramidal neuron of hippocampal slices. It counts as cell-based, rat. How it is done:
(§1) This study was carried out on 21-day old Wistar rats (WAG/GSto, Moscow, Russia). After rapid decapitation, rat brains were immediately transferred to a Petri dish with chilled (4° C.) solution of the composition 120 mM NaCl, 5 mM KCl, 26 mM NaHCO3, 2 mM MgCl2 and 20 mM glucose. Calcium salts were omitted to reduce possible neuronal damage. The solution was constantly bubbled with 95%O2/5%CO2 gas mixture to maintain pH7.4. Hippocampal slices ([…] thick) were cut manually with a razor blade along the alveolar fibres to preserve the lamellar structure of excitatory connections. […]
(§2) Excitatory postsynaptic currents (EPSCs) were recorded by a standard whole-cell patch clamp technique in the CA1 subfield of the hippocampus in response to stimulation of the Schaffer collateral/commissural pathway. […] Access resistance was monitored throughout the experiments and ranged typically from 6 to 9MΩ. […] Extracellular field potentials were recorded using Ni/Cr electrodes. […] The effects of receptor agonists of antagonists were measured as the mean ratio I/Io where I was the current under the substances action and Io was the current in control saline. […]

Assay [6] has as its system CFA-induced thermal hyperalgesia. Put plainly: CFA-induced thermal hyperalgesia (Plantar test, paw withdrawal latency). In kind it is in vivo, rat. How it is done: CFA-Induced Thermal Hyperalgesia. Unilateral inflammation was induced by injecting 100 μl of 50% solution of CFA (Sigma) in physiological saline into the plantar surface of the right hind paw of the rat. The hyperalgesia to thermal stimulation was determined 48 h after CFA injections using the same apparatus as described below for the noxious acute thermal assay.
Thermal sensitivity: On each day following mechanical testing, rats will be placed in a thermal testing apparatus (Plantar test, Ugo Basile, Italy), in which they will be free to move. After 30 min of acclimatization, a constant-power IR stimulus will be focused through the glass base on to the sole of the foot, and the latency for reflex foot withdrawal will be recorded automatically via a photoelectric monitor as previously described Hargreaves et al. 1988.
In each test session, each rat (from 6 tested rats) was tested in three sequential trials at approximately 15 min intervals.

Assay [7] relates to antidromically induced population spikes in CA1 zone of rat hippocampal slices. Nature of the assay: Antidromically induced population spikes in CA1 zone of rat hippocampal slices. In kind it is cell-based. How it is done: as §1, §2
The test system of assay [8] is orthodromically evoked field potentials in CA1 zone of rat hippocampal slices. Put plainly: Orthodromically induced population spikes (field potentials) in CA1 zone of rat hippocampal slices. In kind it is cell-based.

On to `Nc1ncnc2c1ncn2[C@@H]1O[C@H](COP(=O)(O)OP(=O)(O)OP(=O)(O)OP(=O)(O)OC[C@H]2O[C@@H](n3cnc4c(N)ncnc43)[C@H](O)[C@@H]2O)[C@@H](O)[C@H]1O` [Ap4A, diadenosine 5′,5′″-P^1,P^4-tetraphosphate], for which the “effect on excitatory postsynaptic currents” value in assay [1] (literature) was “inhibition”. The “effect on orthodromically evoked field potentials” value in assay [2] (literature) is on record as “inhibition”.
Consider `Nc1ncnc2c1ncn2[C@@H]1O[C@H](CO)[C@@H](O)[C@H]1O` [adenosine], for which the “effect on EPSC amplitudes” value in assay [1] (shown previously (literature)) is recorded as “diminish”. The “effect on orthodromic spikes” value in assay [2] (5 μM, shown previously (literature)) was “inhibit”.
For `Nc1ncnc2c1ncn2[C@@H]1O[C@H](COP(=O)(O)CP(=O)(O)OP(=O)(O)O)[C@@H](O)[C@H]1O` [α,β-methylene-ATP], the “inhibition of orthodromically evoked field potentials by known P2X/P2Y agonists” value in assay [3] was “unable to inhibit”.
The same measure, in the same setting: the entry for `Nc1ncnc2c1ncn2[C@@H]1O[C@H](COP(=O)(O)OP(=O)(O)OP(O)(O)=S)[C@@H](O)[C@H]1O` [ATPγS] is “unable to inhibit”.
With `Nc1ncnc2c1ncn2[C@@H]1O[C@H](COP(=O)(O)OP(=O)(O)CP(=O)(O)OP(=O)(O)OC[C@H]2O[C@@H](n3cnc4c(N)ncnc43)C(O)C2O)C(O)C1O` (stereo partly shown) [AppCH2ppA], the “effect on orthodromically evoked field potentials” value in assay [3] (1.9, 3.7 and 7.4 μm applied in steps, all synaptic pathways incl. CA3-CA1 synapses (FIG. 5A)) is “fast and reversible inhibition”. For the same molecule, in assay [4] (P2Y receptor antagonist reactive blue), the “effect on NMDA-activated current in presence of reactive blue” value is given as “eliminated”. Also, the “effect on NMDA-activated current in presence of EDTA” value in assay [4] (chelator of bivalent cations EDTA) is “removed”. Further, the “amplitude of the NMDA-activated current” value in assay [4] (low micromolar concentrations, concentration-dependent manner) is “increased”. Moreover, in assay [4] (non-specific tyrosine protein kinase inhibitor genestein), the “effect on NMDA-activated current after pre-treatment with genestein” value was “abolished”. Moreover, the “effect on NMDA-activated current in presence of PPADS” value in assay [4] (purine P2 receptor antagonist PPADS) was “eliminated”. Further, in assay [5] (FIG. 5C), the EPSC decay entry was “unchanged”. Besides, the “amplitudes of EPSCs” value in assay [5] (recorded in CA1 pyramidal neuron, 1.9-7.4 μm (FIG. 5C)) was “remained unchanged”. For the same molecule, the CFA-induced thermal hyperalgesia entry in assay [6] (50 μmol/kg s.c.) is listed as “attenuates”. Besides, the “thermal hyperalgesia, contra lateral paw” value in assay [6] (50 μmol/kg s.c. (FIG. 18)) is “attenuates”. In addition, the “paw withdrawal latencies, contra lateral (non-inflamed) paw” value in assay [6] (48 h (FIG. 18)) was “increases”. In assay [6] (48 h after intraplantar CFA (FIG. 17)), the “paw withdrawal latencies, CFA-injected paw” value was “increases”. For the same molecule, the “paw withdrawal latencies for the uninjured paw” value in assay [6] (at the doses tested, compared with injured paw) was “less effectively altered”. Also, the “thermal hyperalgesia, injured paw” value in assay [6] (s.c. administration, 48 h after intraplantar CFA (FIG. 17)) is listed as “evidently potent; also recorded: fully blocked”. Also, the “onset of antinociceptive effects in the injured paw after injection” value in assay [6] (s.c., injured paw) amounted to 3 h. Further, the “amplitudes of antidromic spikes” value in assay [7] (CA3-CA1 synapses, 1.9-7.4 μm (FIG. 5B)) is recorded as “remained unchanged”. Moreover, the “effect on amplitude of antidromically induced population spikes in presence of Ip4I” value in assay [7] (Ip4I 20 μM, then 7.4 μM (FIG. 11)) is “did not cause AppCH2ppA to have an effect”. The “effect on amplitude of orthodromically induced population spikes in presence of Ip4I” value in assay [8] (Ip4I 20 μM, then 7.4 μM (FIG. 10)) is on record as “did hot alter”. Further, the “blocking effect on the orthodromic spikes in presence of PPADS” value in assay [8] (PPADS 20 μM applied first (FIG. 6)) is recorded as “completely abolished”. Further, the “reduction by PTIO of the extent of inhibition of orthodromically evoked field potentials” value in assay [8] (PTIO 1 mM, then 2.5 μM (FIG. 12)) is “over 50%”. Moreover, the “inhibition of orthodromically evoked field potentials in presence of adenosine deaminase” value in assay [8] (adenosine deaminase approx. 2 U/ml, then 7.4 μM) is “eliminated”. The “inhibition of orthodromically evoked field potentials in presence of bicuculine” value in assay [8] (bicuculine 50 μM, then 7.4 μM) is listed as “unaffected”. In addition, the “inhibition of orthodromically evoked field potentials in presence of CPT” value in assay [8] (cyclopentyl teophylline (CPT) 1 μM, then 7.4 μM (FIG. 7)) is listed as “eliminated”. Besides, the “inhibition of orthodromically evoked field potentials in presence of hexamethonium” value in assay [8] (hexamethonium 100 μM, then 7.4 μM) is recorded as “unaffected”. Moreover, the “inhibition of orthodromically evoked field potentials in presence of strychnine” value in assay [8] (strychnine 500 nM, then 7.4 μM) is recorded as “unaffected”.
